From patent US5364944A, “Substituted benzoylbenzene-, biphenyl- and 2-oxazole- alkanoic acid compounds” (American Home Products Corporation, priority 1993, dated 1994)

Assays:
[1] = system: synthesis of the arachidonic acid cyclooxygenase oxidation product PGE2 (rat PMN); assay: Inhibition of cyclooxygenase product PGE2 synthesis by rat PMN; assay type: cell-based; conditions: negative values denote a potentiation of cyclooxygenase
Protocol: In this assay, the procedure of Example 41 is carried out as described. However, in order to determine cyclooxygenase activity, the samples are cochromatographed with authentic reference [^3 H]-PGE2.

[2] = system: biosynthesis of LTB4 by isolated human neutrophils; assay: Inhibition of LTB4 biosynthesis by isolated human neutrophils (PMN); assay type: cell-based; conditions: A23187 stimulated human PMN; for inhibition at 2.5 µM: Neutrophil, read-out: % Inhibition of LTB4 Synthesis
Protocol: The ability of the compounds of the invention to inhibit the biosynthesis of LTB4 by isolated human neutrophils is evaluated in the following assay, which is carried out in this manner.
A leukocyte enriched blood sample obtained from a healthy donor is procured by leukophoresis using a Haemonetics model 30+ blood processor (Biological Specialties, Inc., Lansdale, Pa.). The top "platelet-rich" layer is removed after a low speed spin (35×g, 15 min, 25° C.) of the sample. The remaining cell suspension is centrigued (400×g, 10 min, 25° C.) to sediment the remaining cells. The supernatant is discarded and the cell pellet resuspended in 120 ml HBSS (without Ca^++ /Mg++). The cell suspension is subjected to ficoll-hypaque sedimentation (Histopaque 1077, 400×g, 30 min, 25° C.). Contaminating erythrocytes are lysed by hypotonic shock (1 min). The cells are then washed once with 40 ml of HBSS and resuspended with HBS S (without Ca^++ /Mg^++) to a concentration of 2.5×10^7 cells/ml for further use. Greater than 95% purity is obtained as assessed by microscopic examination.
One ml of human PMN (2.5×10^7 cells/ml) is incubated with vehicle or drugs (10 μl) for 10 min at 30° C. After preincubation, an equal volume of HBSS (1 ml) containing 2.4 mM CaCl2, 6 μM calcium ionophore A23187 and 50 μCi[^3 H]-acetate is then incubated at 30° C. for 15 minutes. An aliquot (100 μl) of the reaction mixture is taken out and mixed with 900 μl of 15% ethanol. LTB4 is extracted by using solid phase extraction on reverse phase C18 columns to remove excess [^3 H]-acetate and PAF. The C18 column is prewashed once with 2 ml of ethanol and water. The sample aliquot is acidified with 0.1 N HCl to pH3 before applying to the column. The column is then washed with 2 ml of water followed by 2 ml of 15% ethanol and 2 ml of petroleum ether to remove excess labeled acetate. The sample is eluted with 2 ml of ethyl acetate. The collected samples are dried with nitrogen and resuspended in 0.5 ml RIA buffer. The quantity of LTB4 in the sample is obtained from RIA determination.
Data presented are the mean +/- s.d. of the values relative to control A23187 stimulated cells for each experiment assayed in triplicate. Percent inhibition when used is calculated as:
% Inhibition=100-[(×.div.Control )×100]
Dose response analysis is performed by non-linear regression analysis for curve fitting and IC50 determination.

[3] = system: LTB4; assay: Reverse passive Arthus pleurisy assay, inflammatory mediator release: LTB4; assay type: in vivo, rat (male Lewis); conditions: standard drugs
Protocol: (§1) The compounds of the invention are further tested in the reverse passive Arthus pleurisy assay to evaluate their effectiveness in inflammatory mediator release and/or the fluid and cellular phases of an inflammatory response.
(§2) This assay is carried out as follows:
A reverse passive Arthus reaction is induced in the pleural cavity of male Lewis rats (150-200 g; fasted overnight prior to use) by the intravenous administration of bovine serum albumin (BSA; 4 mg/0.2 ml) followed 30 minutes later by the injection of rabbit anti-BSA (1 mg/0.2 ml; lyophilized IgG fraction; Organon Teknika, West Chester, Pa.) into the right pleural space under halothane anesthesia. […] Animals are sacrificed at either the time of peak eicosanoid production (i.e. 5 minutes after anti-BSA for immunoreactive TxB2 10 minutes for immunoreactive LTB4, 20 minutes for immunoreactive LTC4) or at the time of peak neutrophil infiltration (4 hours after anti-BSA) by CO2 inhalation. The pleural cavity is then exposed, the fluid exudate removed by gentle vacuum aspiration and the volume of exudate is recorded. For the determination of cellular infiltration, the pleural cavity is rinsed with 3 ml of 0.1% EDTA in sterile saline, and the recovered wash is pooled with the exudate. Cell number is determined on a model ZBI Coulter counter. For determination of eicosanoid production, undiluted pleural exudate is microfuged and the supernatant is extracted with ethanol (8-10 times volume). Extracts are either stored at -20° C., or are evaporated to dryness under a stream of N2 and reconstituted in radioimmunoassay (RIA) buffer.
Eicosanoids are quantitated by RIA according to the procedure specified by the RIA kit manufacturer (Advanced Magnetics, Cambridge, Mass.). Briefly, 100 μl of ^3 H-labeled eicosanoid and 100 μl of specific antibody are sequentially added to 100 μl of extracted pleural exudate in BGG -phosphate buffer which contains 0.01 M phosphate, 0.1% bovine gamma globulin and 0.1% sodium azide at pH 7.0. Antibody-bound eicosanoid is separated from unbound eicosanoid by the addition of 750 μl of dextran (0.4%)-coated charcoal (0.4% Norit A) containing 0.1% sodium azide. The mixture is centrifuged at 2000 RPM at 5° C. for 15 minutes to pellet the charcoal and adsorbed unbound eicosanoid. Antibody-bound labeled eicosanoid is quantitated by counting in a liquid scintillation counter, and is correlated to concentration by a standard curve.
(§3) Inflammatory cells are expressed as 10^6 cells/ml, pleural exudate is expressed as ml of fluid, and the amount of eicosanoids in the pleural cavity is expressed as ng/ml of exudate. Mean ±S.E.M. is determined for each group. Percent inhibition (% I) of cell number, exudate volume and eicosanoid production is calculated for vehicle-treated control groups, and the responses in drug-treated rats are then expressed as the mean % I of the control. […] Exp. Ther., 96, 99-113 (1949).

[4] = system: TxB2; assay: Reverse passive Arthus pleurisy assay, inflammatory mediator release: TxB2; assay type: in vivo, rat (male Lewis); conditions: standard drugs; for ED50 TxB2: p.o., inflammatory mediator release, 5 min
Protocol: as §1, §2
A reverse passive Arthus reaction is induced in the pleural cavity of male Lewis rats (150-200 g; fasted overnight prior to use) by the intravenous administration of bovine serum albumin (BSA; 4 mg/0.2 ml) followed 30 minutes later by the injection of rabbit anti-BSA (1 mg/0.2 ml; lyophilized IgG fraction; Organon Teknika, West Chester, Pa.) into the right pleural space under halothane anesthesia. Drugs or vehicle (0.5% Tween-80) control are administered orally in a volume of 1 ml/100 g body weight at 1 hour prior to the anti-BSA. Animals are sacrificed at either the time of peak eicosanoid production (i.e. 5 minutes after anti-BSA for immunoreactive TxB2 10 minutes for immunoreactive LTB4, 20 minutes for immunoreactive LTC4) or at the time of peak neutrophil infiltration (4 hours after anti-BSA) by CO2 inhalation. The pleural cavity is then exposed, the fluid exudate removed by gentle vacuum aspiration and the volume of exudate is recorded. […] Cell number is determined on a model ZBI Coulter counter. […]
Eicosanoids are quantitated by RIA according to the procedure specified by the RIA kit manufacturer (Advanced Magnetics, Cambridge, Mass.). […] Antibody-bound labeled eicosanoid is quantitated by counting in a liquid scintillation counter, and is correlated to concentration by a standard curve.
Inflammatory cells are expressed as 10^6 cells/ml, pleural exudate is expressed as ml of fluid, and the amount of eicosanoids in the pleural cavity is expressed as ng/ml of exudate. Mean ±S.E.M. is determined for each group. Percent inhibition (% I) of cell number, exudate volume and eicosanoid production is calculated for vehicle-treated control groups, and the responses in drug-treated rats are then expressed as the mean % I of the control. […]

[5] = system: fluid and cellular phases of an inflammatory response; assay: Reverse passive Arthus pleurisy assay, pleural inflammation (fluid exudation, cellular influx); assay type: in vivo, rat (male Lewis); conditions: standard drugs
Protocol: as §1, §2
A reverse passive Arthus reaction is induced in the pleural cavity of male Lewis rats (150-200 g; fasted overnight prior to use) by the intravenous administration of bovine serum albumin (BSA; 4 mg/0.2 ml) followed 30 minutes later by the injection of rabbit anti-BSA (1 mg/0.2 ml; lyophilized IgG fraction; Organon Teknika, West Chester, Pa.) into the right pleural space under halothane anesthesia. Drugs or vehicle (0.5% Tween-80) control are administered orally in a volume of 1 ml/100 g body weight at 1 hour prior to the anti-BSA. Animals are sacrificed at either the time of peak eicosanoid production (i.e. 5 minutes after anti-BSA for immunoreactive TxB2 10 minutes for immunoreactive LTB4, 20 minutes for immunoreactive LTC4) or at the time of peak neutrophil infiltration (4 hours after anti-BSA) by CO2 inhalation. The pleural cavity is then exposed, the fluid exudate removed by gentle vacuum aspiration and the volume of exudate is recorded. For the determination of cellular infiltration, the pleural cavity is rinsed with 3 ml of 0.1% EDTA in sterile saline, and the recovered wash is pooled with the exudate. Cell number is determined on a model ZBI Coulter counter. For determination of eicosanoid production, undiluted pleural exudate is microfuged and the supernatant is extracted with ethanol (8-10 times volume). Extracts are either stored at -20° C., or are evaporated to dryness under a stream of N2 and reconstituted in radioimmunoassay (RIA) buffer.
as §3

[6] = system: 5-lipoxygenase in human whole blood; assay: Inhibition of 5-lipoxygenase in human whole blood (LTB4); assay type: cell-based
Protocol: The assay of this Example measures the ability of the compounds tested to inhibit 5-lipoxygenase in human whole blood.
as §2
Blood is obtained in 50-100 ml quantities from male donors. White blood cell counts and differentials are made. Two ml of blood are placed in a 15 ml polypropylene test tube. Compounds are solubilized in dimethylsulfoxide and diluted 1:10 in 10% bovine serum albumin in phosphate buffered saline, pH 7.4 resulting in a final dimethylsulfoxide concentration of 0.1% in the blood. Then, compounds are added to the blood in a shaking water bath at 37° C. for 10 minutes prior to the addition of 30 μM calcium ionophore (A23187; Sigma). After ionophore administration, whole blood samples are mixed and incubated for 20 minutes at […] in a shaking water bath. Incubation is terminated by placing samples in an ice bath and immediately adding ethylene glycol-bis-(β-aminoethyl ether)-N,N,N',N'-tetraacetic acid (10 mM). Samples are mixed and centrifuged at 1200×g for 15 minutes at 4° C. Preparation of samples for evaluation by RIA or ELISA is carried out by the following protocol. Plasma is removed from sample tubes, placed in 15 ml polypropylene test tubes containing 8 ml methanol, and then vortexed to precipitate protein. Samples are stored at -70° C. overnight. The next day, samples are centrifuged at 200×g for 15 minutes at 4° C. to pellet the precipitate. Samples are dried in a Savant speed vac concentrator, reconstituted to original volume with ice cold RIA or ELISA buffer, and stored at -70° C. until assayed. The assay for eicosanoids (LTB4, TxB2, and PGE2) is performed as described by the manufacturer of the [^3 H]-RIA kit or ELISA kit (LTB4 -Amersham, TxB2 and PGE2 - Caymen Chemical).
The total eicosanoid level in 2 ml of blood is calculated and reported as ng/10^6 neutrophils. […] Drug effects are expressed as percent change from control values.
Compounds tested in vitro are solubilized in dimethylsulfoxide and diluted 1:10 in 10% bovine serum albumin in phosphate buffer saline resulting in a final dimethylsulfoxide concentration of 0.1% in the blood.

`O=C(O)Cc1cccc(C(=O)c2ccc(OCc3ccc4ccccc4n3)cc2)c1` [Example 3, 3-[4-(2-Quinolinylmethoxy)benzoyl]benzene acetic acid] gave an inhibition at 0.5 µM ([1]; at 0.5 μM) of -8% and an inhibition at 10 µM ([1]; at 10 μM) of 8%.
For `CN(O)C(=O)Cc1ccc(-c2ccc(OCc3nc4ccccc4s3)cc2)cc1` [Example 13, 4'-(Benzothiazolylmethoxy)-4-diphenyl-N-hydroxy-N-methyl-acetamide], the inhibition at 2.5 µM [2] was 98.9%.
For `CN=C1CCN(c2cccc(C(F)(F)F)c2)N1` [BW540C, reference compound], the “ED50 LTB4” value ([3]; p.o., inflammatory mediator release, 10 min) was 30 mg/kg and the “ED50 TxB2” value [4] was 19 mg/kg.
With `O=C(O)Cc1ccc(-c2ccc(OCc3nc4ccccc4s3)cc2)cc1` [Example 12, 4'-(Benzothiazolylmethoxyl)-4-diphenylacetic acid] the “% Inhibition of LTB4 Synthesis” value ([2]; at 2.5 μM) was “Inactive”.
For `COc1ccc2cc([C@H](C)C(=O)O)ccc2c1` [Naproxen], the “% Inh LTB4” value ([3]; 4 mg/kg p.o.) was 0%, the “ED50 TxB2” value [4] was 0.24 mg/kg and the “% Inh Cellular Influx” value ([5]; 8 mg/kg p.o.) was 29%. The “ED30 Fluid Exudation” value ([5]; p.o., pleural inflammation) was 3.9 mg/kg.
`CC(c1cc2ccccc2s1)N(O)C(N)=O` (stereo not drawn) [A-64,077, reference compound] gave an inhibition at 2.5 µM [2] of 75.8%.
`C[C@H](C(=O)O)c1ccc2cc(OCc3ccc4ccccc4n3)ccc2c1.NC(CO)(CO)CO` [Wy-50,295-A] was tested, and the “% Inh TxB2” value ([4]; 75 mg/kg p.o.) was 0%.
`CC(C(=O)N(C)O)c1ccc(-c2ccc(OCc3nc4ccccc4n3C)cc2)cc1` (stereo not drawn) [Example 23] was tested, and the IC50 [6] was 11.9 µM, the “% Inhibition of LTB4” value ([6]; at 25 μM) was 32% and the inhibition at 2.5 µM [2] was 99%.
